Assay results reported in the METLIN SMRT retention time set (Domingo-Almenara et al. 2019).

Assay: gradient 5% acetonitrile 3 min, to 50% in 2 min, to 85% in 15 min, held 3 min, 100 µL/min
Conditions: column: Zorbax Extend-C18 2.1 x 50 mm; eluents: water / acetonitrile, 0.1% formic acid
In short: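 Pure standards were analyzed in mixtures of ~100 molecules using HPLC coupled to a quadrupole time-of-flight mass spectrometer, in both positive and negative ionization mode. Separation used a Zorbax Extend-C18 column (2.1 × 50 mm, 1.8 μm) at 100 μL/min, with water and acetonitrile each containing 0.1% formic acid. Dead and dwell volumes were 40 μL and 900 μL, and data were collected over 3 months. Retention time was read from computationally picked adduct peaks, each inspected manually.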

SMILES	RP-LC retention time [s]
Cc1ccc(-c2csc(NC(=O)c3coc4ccccc4c3=O)n2)o1	1070
Cc1cc2[nH]c(C(=O)NC(C)c3ccccc3)c(CN3CCOCC3)c2s1 (configuration not stated)	688
CN(Cc1ccccc1)c1ccc(-c2noc(CN3CCC4(CC3)OCCO4)n2)cn1	745
Cc1ccc(CNC(=O)C2(C)Cn3nc(C(=O)NCCN4CCCC4)cc3C(=O)N2C)cc1 (configuration not stated)	608
CCc1ccccc1NC(=O)CN1C(=O)C2CCCCN2c2ccc(S(=O)(=O)N(C)C)cc21 (configuration not stated)	918
CCCC(=O)Nc1nc(-c2ccccc2)c(C(=O)OCC)s1	973
Cc1ccc(-n2c(N3CCCC(C(=O)NCC(C)c4ccccc4)C3)nc3ccsc3c2=O)cc1 (configuration not stated)	961
COc1cccc(Cn2nc3ccc(S(=O)(=O)N4CCC(C)CC4)cn3c2=O)c1	900
COc1ccc(C(=O)N2CCC3(CC2)NC(=O)c2cc(Cl)ccc2N3C)cc1	768
CCCN1C(=O)COc2ccc(-c3noc(-c4cccc5[nH]ccc45)n3)cc21	1070
C=CCN(Cc1nc(-c2ccc(C)cc2)no1)C(=O)Nc1cccc(C)c1	1110
Cc1noc(C)c1C1CCCN1C(=O)NC(C)C (configuration not stated)	656
CCCn1cc(S(=O)(=O)Nc2cc(C)cc(C)c2)c2cccnc21	946
CCOC(=O)c1ccc(NC2=NS(=O)(=O)C(c3ccccc3)=C2C)cc1	960
O=C(Nc1ccc(F)cc1)N1CCN(c2ccc(C(F)(F)F)cn2)CC1	921
O=C(NCCn1c(=O)n(Cc2ccccc2)c2cccnc21)c1cccnc1	650
O=C(Nc1ccc(F)c(Cl)c1)c1cccn1Cc1noc(C2CC2)n1	998
CCn1c(=O)oc2cc(-c3noc(CNC(=O)c4ccccc4)n3)ccc21	801
O=C(Nc1ccccc1F)N1C[C@H]2C[C@@H](C1)c1cccc(=O)n1C2	610
CC(=O)N1CCc2ccccc2C1C(=O)NCc1cc(F)ccc1F (configuration not stated)	648
c1ccc(-c2nc3nc4c(c(Nc5ccc6c(c5)OCCO6)n3n2)CCCC4)cc1	970
O=C(Nc1ccc(Cl)cc1)c1cccnc1-n1cc(-c2ccncc2)cn1	653

SMILES	RP-LC retention time [s]
COc1ccccc1N1CCN(c2cc(SCC(=O)Nc3ccc(F)c(Cl)c3)ncn2)CC1	1090
CS(=O)(=O)N1CCC(C(=O)NCc2ccccc2)Oc2ccccc21 (configuration not stated)	807
CCOC(=O)c1[nH]c(C)c(CCC(=O)N2CCC(C(=O)NC(C)c3ccccc3)CC2)c1C (configuration not stated)	792
COc1ccc(-c2ncc3c(n2)CCN(S(=O)(=O)c2ccc4c(c2)CCC4)C3)cc1	1160
Cc1cc(C)cc(S(=O)(=O)N2CCc3c(c(-c4nnc(-c5ccc(F)cc5)o4)nn3C)C2)c1	812
CCOc1ccccc1-n1nnc(C(=O)OCc2nc(-c3ccccc3)oc2C)c1C	1090
COc1cccc(CNC(=O)C2(C)CCCN(C(=O)Nc3ccc(F)c(Cl)c3)C2)c1 (configuration not stated)	959
CCc1ccc(-c2cc(C(=O)N3CCN(c4ncccn4)CC3)c3ccccc3n2)s1	1090
CN1c2ccc(F)cc2C(=O)NC12CCN(C(=O)Cc1ccccc1)CC2	764
O=C(CCC(=O)N1CC2CCCN2c2ccccc21)NCCc1cccs1 (configuration not stated)	906
CN(C(=O)c1ccc(F)cc1C(F)(F)F)C1CCN(c2nnc(-c3ccnn3C)c3ccccc23)CC1	850
CC1CN(c2nc3ccccc3nc2SCC(=O)N2CCOCC2)CC(C)O1 (configuration not stated)	882
COc1ccc(C2(C(=O)N3CCCC(Cn4cnc5cccnc54)C3)CC2)cc1 (configuration not stated)	656
COc1ccc2[nH]c(=O)c(CCC(=O)N3CCN(c4ccccn4)CC3)cc2c1	568
CCOCCCNC(=O)C1=NN(c2ccc(F)cc2)c2ccc(F)cc2S1(=O)=O	885
CCOc1ccc(NC(=O)Cn2cccc2-c2nnc(C3CCC3)o2)cc1	912
Cc1ccc(-c2nc(-c3cccc(-c4ccnn4C)c3)no2)cc1C	1300
O=C1CC(c2nc(-c3cccc(Cl)c3)no2)CN1c1ccc2c(c1)OCCO2 (configuration not stated)	1000
COc1ccc(-n2ccn3cc(-c4ccc(F)cc4F)nc3c2=O)cc1Cl	929
Cc1cccc(Cn2nnc(C(=O)O)c2-c2cccnc2)c1	669
CCN(CC)c1ccc(Nc2nc(-c3ccc(OC)cc3)cs2)cc1	742
Cc1nc(C)c(C(=O)N2CCC(N3C[C@H](O)C[C@H]3C(=O)NC3CCCCC3)CC2)s1	574

SMILES	RP-LC retention time [s]
COc1ccc(NC(=O)N2CC(N(C3CCOCC3)S(C)(=O)=O)C2)cc1F	685
COc1ccc(-c2nnc(COc3ccc(NC(=O)c4ccnc(Cl)c4)cc3)o2)cc1	868
COc1ccccc1NC(=O)C1CCN(S(=O)(=O)c2c(C)[nH]c(C)c2C(=O)N2CCCC2)CC1	693
Cc1cccc(-c2nnc(-c3cccc(S(=O)(=O)N4CCOCC4)c3)o2)c1	885
CC(CCc1ccccc1)NC(=O)c1ccc(-n2cccn2)nc1 (configuration not stated)	858
Cc1sc(NC(=O)c2ccccc2)c(CN(C)C)c1C	625
Cc1cc(C)n(-c2c(C)c(C)nc3c(-c4ccccc4)cnn23)n1	947
Cc1ccc(NC(=O)N2CC(c3nc(C(C)C)nn3C)C2)cc1	689
Cc1ccc(Cl)cc1NC(=O)C1CC(=O)N(c2ccc3c(c2)CCN3C(=O)C2CC2)C1 (configuration not stated)	821
O=C(NCc1nnc(SC/C=C/c2ccccc2)o1)c1ccccc1	824
CCS(=O)(=O)N1CC(=O)N(c2ccc(F)cc2)C(C)(C(=O)NCc2ccccc2)C1 (configuration not stated)	778
COCCNCc1ccc(-c2cc(Cl)cc(Cl)c2)o1	722
Cc1ccc(N2C(=O)CCS2(=O)=O)cc1S(=O)(=O)N1c2ccccc2CC1C (configuration not stated)	867
O=C(C1=CCN(Cc2ccccc2)CC1)N1CCN(c2cccc(Cl)c2)CC1	707
CC(C)n1cnc2cc(CNC(=O)Cc3cccc(C(F)(F)F)c3)ccc21	680
Cc1cc(N2CCCC2)n2nc(CN3CCc4ccccc4C3)nc2n1	598
CCOc1ccccc1-c1noc(Cn2c(=O)n(-c3ccc(F)cc3)c(=O)c3sccc32)n1	956
O=C(NCc1ccc(F)cc1F)C1CCCN(c2ccc(-c3ccccc3)nn2)C1 (configuration not stated)	722
Cc1nc(-c2noc(-c3cccc(F)c3)n2)cn1CC(=O)Nc1cccc(Cl)c1	957
COc1cc(OC)c(NC(=O)C2CCCN(C(=O)c3cc(-c4ccncc4)n[nH]3)C2)cc1Cl (configuration not stated)	633
CCC(C)C(NC(=O)Cc1ccc(Cl)cc1)C(=O)Nc1nc2ccccc2[nH]1 (configuration not stated)	785
Cc1csc(-c2cc(S(=O)(=O)Nc3ccc(F)cc3Cl)cn2CC(=O)N2CCCC2)n1	944

SMILES	RP-LC retention time [s]
CCC(CO)NCc1ccc(-c2cc(Cl)ccc2Cl)o1 (configuration not stated)	693
CC1(c2nc(C3CC3)no2)CCCN(C(=O)c2n[nH]c3ccccc23)C1 (configuration not stated)	781
O=C(c1cnccn1)N1[C@H]2CC[C@@H]1c1cnc(-c3ccccc3)nc1C2	807
CCC(CC)c1nnc(NC(=O)C2CC(=O)N(CCc3c[nH]c4ccc(C)cc34)C2)s1 (configuration not stated)	856
Cc1oc2c(c1C(=O)Nc1ccc(C(F)(F)F)cc1)C1=NC(C)(C)CN1C=N2	728
NC(=O)Cn1cnc2nc(N3CCC(C(=O)NC4CC4)CC3)sc2c1=O	566
CCN1CCN(C(=O)C2CCN(c3nc4ccc(-c5ccsc5)nc4s3)CC2)CC1	666
O=C(NCCN1CCN(C(=O)Cn2ccc3ccccc32)CC1)c1cccs1	572
O=C(COc1ccc(Cl)cc1)Nc1nc(-c2ccc(Cl)cc2)cs1	1190
CCc1cccc(NC(=O)C2CCN(S(=O)(=O)c3ccc4c(c3)CCCC(=O)N4)CC2)c1	735
O=C(O)C1CCc2sc(C(=O)N3CCOCC3)cc2C1 (configuration not stated)	625
CC(C)n1cnc(S(=O)(=O)N2CCC(C(=O)Nc3ccccc3)CC2)c1	748
CC1(C)NC(=O)N(CCC(=O)N2CCC(c3nc(C4CCOCC4)no3)C2)C1=O (configuration not stated)	604
CCc1nc(CN2C(=O)COc3cc(S(=O)(=O)N4CCN(c5ncccn5)CC4)c(C)cc32)no1	871
O=C(NCC1CCCO1)C1COC2(CCN(C(=O)C3CC3)CC2)N1C(=O)c1ccccc1 (configuration not stated)	608
CCOc1ccccc1NS(=O)(=O)c1ccc2c(c1)CCCC(=O)N2	783
O=C(NCCc1cccs1)C1CCN(C(=O)c2ncn3c2COC(c2ccccc2)C3)CC1 (configuration not stated)	738
Cc1ccc2[nH]cc(CCN3CC(C(=O)Nc4ccccc4C)CC3=O)c2c1 (configuration not stated)	798
O=C1CN(C(=O)CCC[C@@H]2[C@H]3CCCN4CCC[C@@H](CN2C(=O)c2cccnc2)[C@@H]34)CCN1	629
c1ccc(CNc2nc(-c3ccccc3)no2)cc1	975
CCN(CC)c1ccc(NC(=O)CN2C(=O)C(C)(C)c3ccccc32)c(C)c1	630
